Results reported in patent publication US8084492B2, “Benzofuran compound and pharmaceutical composition containing the same” (The New Industry Research Organization, priority 2004, dated 2011).

What was measured:
human BLT2 = target: T1, human BLT2 (Homo sapiens, UniProt Q9NPC1); test: LTB4-induced intracellular calcium increase (Fluo-3) in CHO cells expressing human BLT2; type: cell-based; conditions: CHO cells harbouring BLT2; compound 10 μM; 100 nM LTB4; fluorescence AUC in 10 min
T1 construct: expressed in transfected cells; host or cells: CHO cells
T1 sequence (Q9NPC1 1-358): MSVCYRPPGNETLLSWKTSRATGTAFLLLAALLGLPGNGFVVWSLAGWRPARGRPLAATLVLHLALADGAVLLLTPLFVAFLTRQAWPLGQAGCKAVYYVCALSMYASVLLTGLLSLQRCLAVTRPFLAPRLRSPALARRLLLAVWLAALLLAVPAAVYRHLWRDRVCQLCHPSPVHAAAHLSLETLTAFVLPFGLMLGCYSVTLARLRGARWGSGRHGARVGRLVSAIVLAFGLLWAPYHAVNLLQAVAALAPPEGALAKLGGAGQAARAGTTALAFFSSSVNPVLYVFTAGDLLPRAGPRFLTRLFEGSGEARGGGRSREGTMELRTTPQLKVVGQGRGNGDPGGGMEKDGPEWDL
Description: (§1) CHO cells harbouring a gene encoding human BLT1 or human BLT2 and functionally expressing the receptor were seeded in a 96 well plate at 4×10^4 cells/well, and cultured at 37° C. for 60 min. The culture supernatant was removed and a loading buffer (100 μl) containing 4 μM Fluo-3 (manufactured by Dojindo), 0.04% pluoronic acid (manufactured by Sigma) and 1% serum was added. The cells were cultured at 37° C. for 30 min to introduce Fluo-3 into the cells. After culture, the cells were washed with a buffer, and a buffer containing the compound of Example 1 (10 μM (final concentration)) was added, and then 100 nM (final concentration) of leukotriene B4 (LTB4) was added. Changes in the intracellular calcium ion concentration were measured with Flexstation (manufactured by Molecular Devices Corporation) as an increase in the fluorescence intensity (area under a curve in a time-course graph of fluorescence intensity in 10 min measurement). As a positive control of BLT1 and BLT2 antagonists, ZK158252, a known LTB4 inhibitor, was used.

human BLT1 = target: T2, human BLT1 (Homo sapiens, UniProt Q15722); test: LTB4-induced intracellular calcium increase (Fluo-3) in CHO cells expressing human BLT1; type: cell-based; conditions: CHO cells harbouring BLT1; compound 10 μM; 100 nM LTB4; fluorescence AUC in 10 min
T2 construct: expressed in transfected cells; host or cells: CHO cells
T2 sequence (Q15722 whole entry): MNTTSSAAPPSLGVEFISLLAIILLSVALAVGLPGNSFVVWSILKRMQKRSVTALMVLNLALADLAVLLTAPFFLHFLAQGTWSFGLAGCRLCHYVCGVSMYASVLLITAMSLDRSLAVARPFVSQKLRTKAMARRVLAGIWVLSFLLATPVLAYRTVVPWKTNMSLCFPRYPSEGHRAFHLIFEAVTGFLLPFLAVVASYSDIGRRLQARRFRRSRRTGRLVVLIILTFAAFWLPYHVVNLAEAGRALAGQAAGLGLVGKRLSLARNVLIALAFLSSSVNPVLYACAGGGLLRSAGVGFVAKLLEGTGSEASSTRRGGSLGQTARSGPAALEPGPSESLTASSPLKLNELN
Description: as §1

Row | SMILES | suppression of increase in the intracellular calcium ion concentration due to LTB4 stimulation (human BLT2) | suppression of increase in the intracellular calcium ion concentration due to LTB4 stimulation (human BLT1) | melting point [°C]
1 | CCN(CC)C(=O)/C=C(\C)c1cc2cccc(OC(C)c3ccccc3)c2o1 (stereo not shown) [Example 1, (E)-3-[7-(1-phenylethoxy)-benzofuran-2-yl]-but-2-enoic acid-diethylamide] | suppressed by the compound of Example 1 at an intensity equivalent to or greater than the suppression by ZK158252 | weaker as compared to the effect on BLT2 | –
2 | COc1ccc(CCNC(=O)/C=C(/C)c2c(C)oc3ccc(Cl)cc23)cc1OC [Example 2] | – | – | 150.9 to 151.5
3 | COc1ccc(CCNC(=O)/C=C(\C)c2c(C)oc3ccc(Cl)cc23)cc1OC [Example 3] | – | – | 73 to 76
4 | COc1cccc(NC(=O)/C=C(\C)c2c(C)oc3ccc(Cl)cc23)c1 [Example 4] | – | – | 139 to 142
5 | COc1ccc(CCNC(=O)/C=C(\C)c2c(C)oc3ccc(Br)cc23)cc1OC [Example 5] | – | – | 143.1 to 150
6 | CCN(CC)C(=O)/C=C(/c1ccc(Cl)cc1)c1cc2cc(Br)ccc2o1 [Example 6] | – | – | 106.7 to 109.8
7 | COc1ccc(CCNC(=O)/C=C/c2coc3ccccc23)cc1OC [Example 9] | – | – | 138.1 to 140.3
8 | O=C(/C=C(/c1ccc(Cl)cc1)c1cc2cc(Br)ccc2o1)N1CCOCC1 [Example 10] | – | – | 150 to 153.5
9 | COc1ccc(CCNC(=O)/C=C(\C)c2c(-c3ccccc3)oc3ccc(Cl)cc23)cc1OC [Example 11] | – | – | 169.1 to 171.9
10 | CCN(CC)C(=O)/C=C(/c1ccc(OC)cc1)c1cc2cc(Br)ccc2o1 [Example 13] | – | – | 93.5 to 96
11 | O=C(/C=C/c1coc2ccccc12)N1CCOCC1 [Example 14] | – | – | 132.1 to 134.6
12 | COc1ccc(CCNC(=O)/C=C(/C)c2c(C)oc3ccc(Br)cc23)cc1OC [Example 15] | – | – | 150.1 to 153.5
13 | COc1cccc(NC(=O)/C=C(/c2ccc(Cl)cc2)c2cc3cc(Br)ccc3o2)c1 [Example 16] | – | – | 160.1 to 162.2
14 | COc1ccc(C(=CC(=O)NCCc2ccc(OC)c(OC)c2)c2cc3cc(Br)ccc3o2)cc1 [Example 17] | – | – | 112.2 to 117
15 | CCN(CC)C(=O)/C=C(\C)c1c(C)oc2ccc([N+](=O)[O-])cc12 [Example 20] | – | – | 130 to 134
16 | COc1ccc(CCNC(=O)C=C(C)c2c(C)oc3ccc([N+](=O)[O-])cc23)cc1OC [Example 21] | – | – | 116.9 to 124.4
17 | O=C(O)CCC/C=C1\CCCCC1/C=C/C=C/C(O)C1(CC#Cc2ccccc2)CCC1 (stereo not shown) [ZK158252, reference compound] | significantly suppressed | significantly suppressed | –
